Assay results: patent US20240376055A1, “INHIBITORS OF TRANSGLUTAMINASES” (Zedira GmbH, priority 2021, published 2024)

Columns and labels:
[1] = target: T1, recombinant human transglutaminase 2 (Homo sapiens, UniProt P21980); test: Transglutaminase assay (DCC-assay: dansylcadaverine incorporation into dimethylcasein); format: biochemical; settings: for IC50: 10 nM TG2, 37° C., slope 20-30 min
T1 construct: purchased Zedira T022
T1 sequence (P21980 1-687): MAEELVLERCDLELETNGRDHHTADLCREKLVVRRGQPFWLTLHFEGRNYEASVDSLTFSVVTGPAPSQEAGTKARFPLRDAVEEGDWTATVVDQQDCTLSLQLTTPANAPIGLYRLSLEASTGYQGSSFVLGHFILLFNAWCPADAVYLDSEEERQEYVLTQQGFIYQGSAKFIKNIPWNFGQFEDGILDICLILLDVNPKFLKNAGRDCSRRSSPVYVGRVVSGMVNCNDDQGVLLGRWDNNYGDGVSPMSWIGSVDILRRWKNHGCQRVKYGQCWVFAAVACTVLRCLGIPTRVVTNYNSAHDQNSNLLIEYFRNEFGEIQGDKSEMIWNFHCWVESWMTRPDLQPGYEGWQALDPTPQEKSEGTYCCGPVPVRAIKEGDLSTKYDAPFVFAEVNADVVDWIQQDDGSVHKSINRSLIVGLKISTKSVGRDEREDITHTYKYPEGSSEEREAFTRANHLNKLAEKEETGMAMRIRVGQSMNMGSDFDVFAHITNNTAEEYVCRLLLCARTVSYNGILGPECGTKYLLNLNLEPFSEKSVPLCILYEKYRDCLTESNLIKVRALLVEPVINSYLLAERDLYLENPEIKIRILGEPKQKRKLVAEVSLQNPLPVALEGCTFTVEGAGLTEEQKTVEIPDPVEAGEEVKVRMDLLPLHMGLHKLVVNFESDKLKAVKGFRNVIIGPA
Procedure: To illustrate the advantage of branched alkyl moieties over aromatic moieties, we refer to reference compounds Ref. 2 (ZED1227, U.S. Pat. No. 9,434,763 B2) and Ref. 3 (A8, ZED1047). Inhibition data were determined using the classical fluorescent transamidation assay (dansylcadaverine incorporation into methylated casein, DCC-assay) as described [Büchold, C.; Hils, M.; Gerlach, U.; Weber, J.; Pelzer, C.; Heil, A.; Aeschlimann, D.; Pasternack, R. Features of ZED1227: The First-In-Class Tissue Transglutaminase Inhibitor Undergoing Clinical Evaluation for the Treatment of Celiac Disease. Cells 2022, 11, 1667. https://doi.org/10.3390/cells11101667]. Casein is one of the best known high molecular weight (24 kDa) protein substrates for transglutaminases. Please note, the IC50 value of Ref. 3 (A8) published in U.S. Pat. No. 9,434,763 B2 cannot be compared to the present data, relying on a fluorogenic isopeptidase assay.
To this extent, inhibition data were determined using the classical fluorescent transamidation assay (dansylcadaverine incorporation into methylated casein, DCC-assay) as described in Büchold et al. [Buchold, C.; Hils, M.; Gerlach, U.; Weber, J.; Pelzer, C.; Heil, A.; Aeschlimann, D.; Pasternack, R. Features of ZED1227: The First-In-Class Tissue Transglutaminase Inhibitor Undergoing Clinical Evaluation for the Treatment of Celiac Disease. Cells 2022, 11, 1667. https://doi.org/10.3390/cells11101667]. Casein is one of the best known high molecular weight (24 kDa) protein substrates for transglutaminases. Inhibition data of the inventive compounds was compared with inhibition of compounds disclosed in U.S. Pat. No. 9,434,763 B2, particularly, compound A8, which is denoted herein as Reference 3. It is noteworthy that the IC50 values of compounds A8 published in U.S. Pat. No. 9,434,763 B2 and E16 from U.S. Pat. No. 11,072,634 B2 cannot be compared to the present data, relying on a fluorogenic isopeptidase assay.
For the determination of potency of inhibitors against tissue transglutaminase, the incorporation of dansylcadaverine into dimethylcasein (Zedira product T036, Lorand et al., Anal Biochem, 1971, 44:221-31) was measured using recombinant human transglutaminase 2 (Zedira Product T022).
The tissue transglutaminase is diluted in buffer (50 mM Tris-HCl, 7.5 mM CaCl2), 150 mM NaCl, pH=7.4). The final concentration of TG2 in the assay is 10 nM. A 10 mM inhibitor stock solution is prepared in DMSO, and from this a serial 1:2-fold dilution series is prepared also in DMSO. […]
Increase in fluorescence is measured using λex=330 nm and λem=500 nm at 37° C. for 30 min. […]
Analysis of enzymatic activity is performed by calculation of the slope of an increase in fluorescence intensity. […]

[2] = Log D by shake flask method (octanol / PBS pH 7.4, HPLC); format: physicochemical; settings: octanol/phosphate-buffered saline; octanol / PBS pH 7.4, shake flask
Procedure: In order to classify the inventive compounds according to their lipophilicity, Log D values (distribution coefficient) were determined by means of the well-established shake flask method, measuring the partition of a compound between an octanol and phosphate-buffered saline (PBS, pH 7.4) by HPLC.
Compounds with a moderate lipophilicity (Log D values from 0 to 3) are usually advantaged for oral absorption, being in balance between solubility and permeability. However, sophisticated formulation of a compound might improve oral bioavailability for highly lipophilic compounds.

[3] = Caco-2 permeability assay (CacoReady kit); format: in vitro ADME; settings: human; Caco-2 barrier
Procedure: Permeability coefficients (Papp values) were obtained from Caco-2 barrier studies predicting oral/intestinal bioavailability of the tested compounds. The assays were performed by using CacoReady™ ready-to-use kits from ReadyCell according to the manufacturers protocol.

Row | IC50 [1] | logD [2] | Papp [3] | fold more potent compared to Ref. 4 ([1]; compared to Ref. 4, table 1) | fold more potent compared to Ref. 3 ([1]; DCC-assay, compared to Ref. 3 (A8)) | SMILES
1 | 150 to 600 nM | 1 to 3 | < 1 ×10⁻⁶ cm/s |  |  | CCNC(=O)C(=O)CC[C@H](NC(=O)c1ccn(C)n1)C(=O)Nc1cccn(CC(=O)N[C@]23C[C@H]4C5CC6CC4[C@H](C2)C(C6)[C@H]5C3)c1=O (single isomer, unassigned) [Compound I-80]
2 | 600 to 3500 nM | 1 to 3 | 1 to 10 ×10⁻⁶ cm/s |  |  | CCNC(=O)C(=O)CC[C@H](NC(=O)c1ncc(OC)o1)C(=O)Nc1cccn(CCC(=O)NC2C3CC4CC(C3)CC2C4)c1=O (stereo partly drawn) [Compound I-87, (S)-N1-(1-(3-(2-adamantylamino)-3-oxopropyl)-2-oxo-1,2-dihydropyridin-3-yl)-N6-ethyl-2-(5-methoxyoxazole-2-carboxamido)-5-oxohexanediamide]
3 |  |  |  | about 15 fold |  | CCC(CC)CNC(=O)Cn1cccc(NC(=O)[C@H](CCC(=O)C(=O)NC)NC(=O)c2cncn2C)c1=O [Ref. 1, reference compound]
4 |  |  |  |  | 80 fold | CCC(CC)CNC(=O)Cn1cccc(NC(=O)[C@H](CC/C=C/C(=O)OC)NC(=O)c2cncn2C)c1=O [Ref. 2, reference compound]
